Measured values published in ChEMBL document CHEMBL4402607, “Molecular Basis for Omapatrilat and Sampatrilat Binding to Neprilysin-Implications for Dual Inhibitor Design with Angiotensin-Converting Enzyme” (J Med Chem, 2020).

What was measured:
[1] = biological target: Neprilysin (Homo sapiens, UniProt P08473); test: Inhibition of NEP (unknown origin)
[2] = biological target: T1, Angiotensin-converting enzyme (Homo sapiens, UniProt P12821); test: Inhibition of human testis ACE C-domain lacking unique O-glycosylated region, transmembrane anchor and cytoplasmic tail expressed in CHO cells using Z-FHL as substrate by fluorescence based assay
T1 sequence (P12821 whole entry, the tested form may be a part): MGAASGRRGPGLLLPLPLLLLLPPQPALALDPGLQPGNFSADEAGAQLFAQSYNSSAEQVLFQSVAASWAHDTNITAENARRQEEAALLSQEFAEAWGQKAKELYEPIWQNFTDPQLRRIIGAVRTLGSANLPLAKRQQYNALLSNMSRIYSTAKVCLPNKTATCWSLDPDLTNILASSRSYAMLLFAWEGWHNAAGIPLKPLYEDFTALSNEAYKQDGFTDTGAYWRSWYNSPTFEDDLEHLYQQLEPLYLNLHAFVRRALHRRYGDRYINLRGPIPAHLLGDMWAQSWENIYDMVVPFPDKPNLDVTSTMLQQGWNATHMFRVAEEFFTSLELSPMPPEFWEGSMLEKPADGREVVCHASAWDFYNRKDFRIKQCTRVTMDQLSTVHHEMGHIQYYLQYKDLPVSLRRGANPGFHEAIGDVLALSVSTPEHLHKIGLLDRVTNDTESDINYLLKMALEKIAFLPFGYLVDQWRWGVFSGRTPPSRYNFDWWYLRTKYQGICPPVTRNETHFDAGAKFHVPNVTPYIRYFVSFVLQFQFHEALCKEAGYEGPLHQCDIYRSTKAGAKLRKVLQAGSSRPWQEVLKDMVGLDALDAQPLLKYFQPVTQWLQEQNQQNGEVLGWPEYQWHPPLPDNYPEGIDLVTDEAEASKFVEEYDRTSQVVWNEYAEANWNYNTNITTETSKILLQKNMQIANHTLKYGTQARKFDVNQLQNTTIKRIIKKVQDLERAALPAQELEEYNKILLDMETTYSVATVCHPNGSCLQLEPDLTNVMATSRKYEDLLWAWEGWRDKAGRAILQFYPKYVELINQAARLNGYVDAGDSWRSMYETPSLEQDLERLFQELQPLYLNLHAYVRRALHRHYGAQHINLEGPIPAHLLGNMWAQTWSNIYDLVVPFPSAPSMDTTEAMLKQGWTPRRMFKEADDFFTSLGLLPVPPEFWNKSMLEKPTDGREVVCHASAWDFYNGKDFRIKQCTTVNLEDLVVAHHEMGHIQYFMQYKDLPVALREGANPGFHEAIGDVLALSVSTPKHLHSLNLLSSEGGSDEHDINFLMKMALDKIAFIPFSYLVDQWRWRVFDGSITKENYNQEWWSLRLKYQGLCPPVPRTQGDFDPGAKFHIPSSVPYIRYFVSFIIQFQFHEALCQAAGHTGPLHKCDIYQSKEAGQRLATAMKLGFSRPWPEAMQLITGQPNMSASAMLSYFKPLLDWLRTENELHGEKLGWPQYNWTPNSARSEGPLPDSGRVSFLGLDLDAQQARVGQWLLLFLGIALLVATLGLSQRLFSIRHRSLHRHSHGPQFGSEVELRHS

[3] = biological target: T1, Angiotensin-converting enzyme; test: Inhibition of human somatic ACE N-domain soluble form (1 to 629 residues) expressed in CHO cells using Z-FHL as substrate preincubated with enzyme followed by substrate addition by fluorescence based assay
[4] = biological target: T1, Angiotensin-converting enzyme; test: Inhibition of human ACE using MCA-RPPGFSAFK-Dnp-OH as substrate by fluorescence based analysis
[5] = biological target: T2, Neprilysin (Rattus norvegicus, UniProt P07861); test: Inhibition of rat kidney NEP using glutaryl-Ala-Ala-beta-naphthylamide as substrate preincubated with enzyme for 15 mins followed by substrate addition
T2 sequence (P07861 whole entry): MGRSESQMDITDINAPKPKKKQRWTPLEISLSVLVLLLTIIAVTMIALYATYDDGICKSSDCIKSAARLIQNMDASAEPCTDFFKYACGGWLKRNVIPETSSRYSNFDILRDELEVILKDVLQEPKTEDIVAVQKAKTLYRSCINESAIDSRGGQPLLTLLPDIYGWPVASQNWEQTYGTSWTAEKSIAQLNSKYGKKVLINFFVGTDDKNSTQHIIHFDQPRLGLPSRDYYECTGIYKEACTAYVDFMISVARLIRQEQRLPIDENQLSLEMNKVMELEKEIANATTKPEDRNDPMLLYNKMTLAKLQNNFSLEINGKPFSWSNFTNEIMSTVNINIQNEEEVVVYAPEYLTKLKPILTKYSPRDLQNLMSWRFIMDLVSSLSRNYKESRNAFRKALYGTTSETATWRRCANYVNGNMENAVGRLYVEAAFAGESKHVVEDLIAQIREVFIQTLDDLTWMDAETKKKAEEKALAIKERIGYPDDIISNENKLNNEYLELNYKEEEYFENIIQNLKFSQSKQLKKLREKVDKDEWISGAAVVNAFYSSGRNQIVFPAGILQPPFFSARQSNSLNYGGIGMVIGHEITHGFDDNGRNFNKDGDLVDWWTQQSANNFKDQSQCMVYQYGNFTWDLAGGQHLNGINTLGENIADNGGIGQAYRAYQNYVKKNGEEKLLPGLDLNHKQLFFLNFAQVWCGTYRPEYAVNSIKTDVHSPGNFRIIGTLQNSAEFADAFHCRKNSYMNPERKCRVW

[6] = Inhibition of rabbit lung ACE using hippuryl-His-Leu as substrate preincubated with enzyme for 15 mins followed by substrate addition; set-up: species or system Oryctolagus cuniculus

Chain of Neprilysin (Homo sapiens, UniProt P08473) (P08473 whole entry): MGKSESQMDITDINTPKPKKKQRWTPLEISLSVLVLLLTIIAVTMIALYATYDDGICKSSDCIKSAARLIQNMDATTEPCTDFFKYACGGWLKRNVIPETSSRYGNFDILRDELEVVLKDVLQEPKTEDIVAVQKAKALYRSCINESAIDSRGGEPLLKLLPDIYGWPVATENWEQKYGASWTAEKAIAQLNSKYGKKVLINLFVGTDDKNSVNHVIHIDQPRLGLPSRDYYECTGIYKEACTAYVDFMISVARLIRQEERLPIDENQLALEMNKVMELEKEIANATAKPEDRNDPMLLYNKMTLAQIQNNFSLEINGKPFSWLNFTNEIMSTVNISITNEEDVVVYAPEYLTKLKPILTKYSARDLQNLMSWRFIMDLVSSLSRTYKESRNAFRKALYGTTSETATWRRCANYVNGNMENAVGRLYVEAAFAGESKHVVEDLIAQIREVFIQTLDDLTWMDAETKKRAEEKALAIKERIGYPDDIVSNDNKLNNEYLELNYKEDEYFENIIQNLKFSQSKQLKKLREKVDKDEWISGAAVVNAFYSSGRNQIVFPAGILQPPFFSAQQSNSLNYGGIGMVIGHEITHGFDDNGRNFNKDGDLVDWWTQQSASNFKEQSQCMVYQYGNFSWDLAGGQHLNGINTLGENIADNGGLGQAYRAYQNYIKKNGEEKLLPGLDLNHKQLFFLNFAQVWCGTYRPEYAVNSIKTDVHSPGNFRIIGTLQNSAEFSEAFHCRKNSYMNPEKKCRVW

| Ki [2] | Ki [3] | Compound | other results |
| --- | --- | --- | --- |
| 0.0138 µM | 0.172 µM | CS(=O)(=O)N[C@@H](CCCCN)C(=O)NC[C@H](CC1(C(=O)N[C@@H](Cc2ccc(O)cc2)C(=O)O)CCCC1)C(=O)O | IC50 [1]: 0.008 µM |
| 7.4 µM | 10.6 µM | CC(=O)N[C@@H](CC(=O)O)C(=O)NC[C@H](CC1(C(=O)N[C@@H](Cc2ccc(O)cc2)C(=O)O)CCCC1)C(=O)O | – |
| – | – | C[C@H](C[C@@H](Cc1ccc(-c2ccccc2)cc1)NC(=O)CCC(=O)O)C(=O)O [LBQ-657] | IC50 [4]: > 100 µM |
| – | – | CC(C)C[C@H](NP(=O)(O)O[C@@H]1O[C@@H](C)[C@H](O)[C@@H](O)[C@H]1O)C(=O)N[C@@H](Cc1c[nH]c2ccccc12)C(=O)O [PHOSPHORAMIDON] | IC50 [5]: 0.034 µM; IC50 [6]: 78 µM |
